Assay results: US20170232013A1, “COMPOSITIONS AND METHODS FOR THE TREATMENT OF MUSCULOSKELETAL RELATED DISEASES AND DISORDERS USING METAL ION-CITRATE ANALOG COMPLEXES” (The Charlotte-Mecklenburg Hospital Authority d/b/a …, priority 2011, published 2017)

Columns and labels:
[1] = test system: Hartley guinea pigs; experiment: High definition X-ray of front limbs of Hartley guinea pigs after eight months of CaPC; format: in vivo; conditions: 30 mg/kg intraperitoneal twice per week
Method: In this example, three month old Hartley guinea pigs were administered 30 mg/kg calcium phosphorcitrate (CaPC) or saline via intraperitoneal injection twice per week. Eight months later, the guinea pigs were sacrificed and examined with high definition X-ray. […] The bone mineral content of the front limb of a CaPC-treated Hartley guinea pig (left photo, the green arrow) was higher than the bone mineral content of a front limb of an untreated Hartley guinea pig (left photo, the green arrow). […] The diameter of the front limb was lager and the bone mineral content was higher in CaPC-treated Hartley guinea pigs that that in untreated Hartley guinea pigs.

[2] = test system: Hartley guinea pigs; experiment: Skyscan Micro-CT of distal femurs of Hartley guinea pigs; format: in vivo
Method: The distal femurs of the Hartley guinea pigs were also analyzed with Skyscan Micro-CT. The femur of untreated Hartley guinea pigs had less bone volume and larger marrow space than the femur of CaPC-treated Hartley guinea pigs. Micro-CT scan of the femur of Hartley guinea pigs. […] The area showing less trabecular bone and larger marrow space is indicated by a red arrow. In the right image of FIG. 3, the femur of a CaPC-treated Hartley guinea pig is shown.
Femurs, previously stored in 70% ethanol, were cut close to the distal femur condyle. The specimens were left to dry 48-hr before being scanned using Skyscan Micro-CT. A 3-D model was built in the ANT model building program and bisected with a plane down the lateral/midline. Using the model building program, a separate dataset was built forming 30 cross sections on either side of the plane. With this dataset, measurements were taken with the 3D-Calc program. A rectangular region of interest was applied to all 60 sections. The region of interest was placed approximately 0.5 cm down from the growth plate in the central part of the trabeculae and extended downward.

[3] = test system: Hartley guinea pigs; experiment: Subchondral bone mineral density by X-ray densitometry; format: in vivo
Method: The bone mineral density of subchondral bone of these same Hartley guinea pigs was evaluated using a X-ray densitometry.

[4] = test system: meniscus derived from osteoarthritis patients; experiment: Microarray gene expression in cultured minced meniscus; format: cell-based, human; conditions: 7 day treatment, Skeletal Development gene
Description: In this example, meniscus derived from osteoarthritis patients were minced into small pieces and cultured in the absence or presence of magnesium phosphcitrate (MgPC). After 7 day treatment, RNA was extracted and gene expression was investigated using microarray.

| Substance | formation of bone ([1]; vs saline) | bone mineral content of the front limb ([1]; vs untreated) | diameter of the front limb ([1]; vs untreated) | trabecular bone and marrow space of femur (Micro-CT image) ([2]; 30 mg/kg intraperitoneal twice per week, eight months, vs untreated) | Bone Volume ([2]; distal femur, region of interest over 60 sections, untreated 0.19 + 0.04) | Trabecular Number ([2]; distal femur, region of interest over 60 sections, untreated 0.43 + 0.08) | Tissue Volume ([2]; distal femur, region of interest over 60 sections, untreated 10.76 + 1.9) | Trabecular Thickness ([2]; distal femur, region of interest over 60 sections, untreated 32.90 + 3.6) | Subchondral bone mineral density ([3]; Pair one, untreated 0.143) | Subchondral bone mineral density ([3]; Pair three, untreated 0.150) | Subchondral bone mineral density ([3]; Pair two, untreated 0.146) | Differential Expression ACAN [4] | Differential Expression COL2A1 [4] | Differential Expression COL11A1 [4] |
| --- | --- | --- | --- | --- | --- | --- | --- | --- | --- | --- | --- | --- | --- | --- |
| calcium phosphorcitrate [CaPC] | promoted the formation of bone | higher | larger | more trabecular bone and less marrow space | 0.49 + 0.09 | 1.07 + 0.15 | 10.76 + 1.9 | 42.00 + 4.9 | 0.157 g/cm^2 | 0.181 g/cm^2 | 0.161 g/cm^2 | significantly induced | significantly induced | significantly induced |
| magnesium phosphcitrate [MgPC] | – | – | – | – | – | – | – | – | – | – | – | 2.0 | 2.0 | 2.7 |
